Laboratory results reported in publication PMC8996404, “The pharmacokinetics of buserelin after intramuscular administration in pigs and cows” (BMC Veterinary Research, 2022).
Like-named read-outs stand apart in the source and are kept apart here. Marks after values point to notes of the source that are not given here.

Assays:
[1] = Stock solution stability test of buserelin; type: physicochemical; conditions: stock solution in methanol, concentration 100 ng/mL, UPLC-MS/MS
Description: A standard stock solution (1 mg/mL) was prepared by dissolving 2 mg standard buserelin in 2 mL methanol. This solution was stored in brown glass bottles at -20 ℃. Working solutions were prepared by diluting the stock solution with methanol.
Selectivity has been assessed by comparing the chromatograms of blank plasma samples and those of corresponding items with buserelin to exclude the interfering peaks. The calibration curve was established by spiking the blank matrix with known concentration of buserelin. Limit of detection (LOD) and Limit of quantification (LOQ) were determined as the concentrations of buserelin which produced signal/ noise ratio of 3 and 10, respectively. For linearity of this method, calibration curves were generated by least squares regression method with a weighting factor and regression coefficient. Recovery was determined by comparing the analytical results of the extracted quality control (QC) samples with pure standard solution. The accuracy was assessed as the percentage of the measured concentration to the nominal standard concentration. The precision was expressed by coefficient of variation. Stability was assessed by autosampler, benchtop, freeze–thaw, and stock solution test. […]

[2] = dogs, cited from earlier work
Source text: High plasma concentration, high bonding rate, means more drugs cannot across the membrane and barrier. Therefore, binding changes can affect the distribution of drugs. Because protein binding of buserelin is about 15% [2], it is proportional to the body volume and body weight and animals using in this study had larger volume of body water or extracellular water. It has been repo ...

[3] = cited from earlier work
Description: After being approved by the European Medicines Agency (EMA) in 1995 [1], there are some pharmacokinetic studies of buserelin been reported in humans and rats following subcutaneous (s.c.), intranasal (i.n.), or intravenous (i.v.) routes. […] Regardless of the administration route of buserelin, the elimination of half- ... || The Vd was 80.49 ± 43.88 L for pigs and 839.88 ± 174.77 L for cows, which is larger than pigs (304 ± 112 mL/kg) at a single dose 1 mg i.v., and dogs (50.1 ± 2.4 mL/kg) at a single dose 5 mg i.v.. High plasma concentration, high bonding rate, means more drugs cannot across the membrane and barrier. Therefore, binding changes can affect the distribution of drugs. Because protein binding of buserelin is about 15% [2], it is proportional to the body volume and body weight and animals using in this study had larger volume of body water or extracellular water. It has been repo ...

[4] = system: pyroglutamyl-amino-peptidase; conditions: enzyme can be isolated from mammalian liver ref 2; cited from earlier work
Description: (§1) The Vd was 80.49 ± 43.88 L for pigs and 839.88 ± 174.77 L for cows, which is larger than pigs (304 ± 112 mL/kg) at a single dose 1 mg i.v., and dogs (50.1 ± 2.4 mL/kg) at a single dose 5 mg i.v.. High plasma concentration, high bonding rate, means more drugs cannot across the membrane and barrier. Therefore, binding changes can affect the distribution of drugs. Because protein binding of buserelin is about 15% [2], it is proportional to the body volume and body weight and animals using in this study had larger volume of body water or extracellular water. It has been repo ...

[5] = pigs, cited from earlier work
Description: as §1

CCNC(=O)[C@@H]1CCCN1C(=O)[C@H](CCCNC(=N)N)NC(=O)[C@H](CC(C)C)NC(=O)[C@@H](COC(C)(C)C)NC(=O)[C@H](Cc1ccc(O)cc1)NC(=O)[C@H](CO)NC(=O)[C@H](Cc1c[nH]c2ccccc12)NC(=O)[C@H](Cc1cnc[nH]1)NC(=O)[C@@H]1CCC(=O)N1 [buserelin, Buserelin]
Stock solution stability, Mean ± SD ([1]; column Cow): 2.51 ± 0.05 Peak area (10^5)
Stock solution stability, Mean ± SD ([1]; column Pig): 2.50 ± 0.05 Peak area (10^5)
clearance ([2]; 5 mg per dog i.v. injection ref 18): 1.7 ± 0.10 mL/min/kg
tmax ([2]; s.c. at a dose of 3.3 mg ref 18): 4 h
Vd ([2]; single dose 5 mg i.v. ref 18): 0.0501 ± 0.0024 L/kg
t1/2 ([2]; single dose of 5 mg i.v. injection ref 18): 0.94 ± 0.0163 h
Protein binding [3]: about 15%
rapid initial half time / t1/2 ([3]; guinea pigs, i.v. ref 1): 0.2 h
Degradation by pyroglutamyl-amino-peptidase [4]: rapidly degraded
clearance ([5]; 1 mg per pig i.v. injection, no reference given): 2.0 ± 0.4 mL/min/kg
Vd ([5]; single dose 1 mg i.v. ref 14): 0.304 ± 0.112 L/kg
t1/2 ([5]; single dose of 1 mg i.v. injection ref 14): 1.72 ± 0.333 h
